From patent US11225460B2, “Pyrrolidineamide derivatives and uses thereof” (SUNSHINE LAKE PHARMA CO., LTD., priority 2019, dated 2022) come the findings set out here.

By IC50 is commonly meant the concentration that gives 50% inhibition. What is called AUC(0-inf) is total exposure, with the tail of the curve extrapolated. The low end stands for low exposure, the high end for high exposure. What is called AUC(0-t) is exposure summed from dosing to a finite time, without extrapolation to infinity. The low end stands for less exposure, the high end for more exposure. Broadly, the Cmax is the maximum level reached in the sampled fluid or tissue. One may read the MRT inf as the average time that molecules of a dose stay in the body. As a reminder, the Tmax is the time from dosing to the highest level. As a reminder, the half-life is the time needed for the level to fall by half in the phase considered.

Data set [1] addresses T1, Human recombinant monoamine oxidase A (Homo sapiens, UniProt P21397).
T1 construct: host or cells: Sf9 cells
T1 sequence (P21397 1-527): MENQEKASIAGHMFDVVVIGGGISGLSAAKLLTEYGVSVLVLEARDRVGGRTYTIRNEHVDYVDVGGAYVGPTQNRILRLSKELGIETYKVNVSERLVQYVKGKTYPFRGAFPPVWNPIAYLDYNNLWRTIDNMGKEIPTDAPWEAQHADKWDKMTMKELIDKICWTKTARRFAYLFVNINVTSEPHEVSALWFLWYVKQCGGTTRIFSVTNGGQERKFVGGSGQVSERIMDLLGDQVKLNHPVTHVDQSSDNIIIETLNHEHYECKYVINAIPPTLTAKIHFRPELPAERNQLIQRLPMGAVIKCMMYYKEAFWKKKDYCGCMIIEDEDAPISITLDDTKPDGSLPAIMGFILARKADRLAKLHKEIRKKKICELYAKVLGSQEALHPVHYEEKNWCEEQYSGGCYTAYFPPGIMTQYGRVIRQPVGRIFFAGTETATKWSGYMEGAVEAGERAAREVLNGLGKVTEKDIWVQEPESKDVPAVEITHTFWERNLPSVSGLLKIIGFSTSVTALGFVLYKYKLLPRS
Briefly: Inhibitory effect on the activity of monoamine oxidase A. Particulars: human recombinant MAO-A, substrate p-tyramine hydrochloride. It is filed as biochemical. As to the method:
Human recombinant monoamine oxidase A expressed in Sf9 cells was used in the test system. In the experiment, firstly, the recombinant monoamine oxidase A was dissolved in the pre-configured HEPES buffer (0.8% NaCl, 0.037% KCl, 0.0135% Na2HPO4.2H2O, 0.1% Glucan, 0.5% HEPES, pH=7.0) at a concentration of 0.3 μg/μL. To each well of a 384-well plate was added 10 μL of monoamine oxidase A solution, and the test compound with different concentrations (the final concentration of DMSO was 1%) (10 gradient concentrations were 10 mM, 1 mM, 100 μM, 10 μM, 1 μM, 100 nM, 10 nM, 1 nM, 0.1 nM, 0.01 nM) were added into the wells, respectively. The standard reference compound was Clorgyline, the plate was incubated at room temperature for 15 min. Then, each well filled with […] (p-Tyramine hydrochloride, 1 mM) was incubated at room temperature for 60 min. Then 20 μL of fluorescein detection reagent was added to each well, which was fully blended and incubated at room temperature for 20 minutes to produce stable fluorescence signal. The fluorescence signal was read by fluorescein labeling instrument, and the value was expressed by relative light intensity (RLU). The inhibitory rate on enzyme activity was calculated according to the experimental results, the calculated formula: Inh %=(Max−Signal)/(Max−Min)*100, wherein Max was the detected value at the maximum concentration of the sample, Min was the detected value at the minimum concentration of the sample, and Signal was the detected value at the current concentration of the sample.
The standard curve was obtained through the series concentration by experimental test to calculate the IC50.

A short description of data set [2]: Pharmacokinetic evaluation after intravenous or gavage administration in rats. It is filed as in vivo, SD rats. On the procedure: The LC-MS/MS system comprises Agilent 1200 series vacuum degassing furnace, quaternary pumps, well-plate autosampler, thermostatted column compartment, the API4000Qtrap Triple Quadrupole Mass Spectrometer with an electrospray ionization (ESI) source. Quantitative analysis was carried out using MRM mode. The parameters for MRM transitions are in Table 2.
Analysis was carried out on waters xbridge C18 (2.1×50 mm, […] column, 0.5 μL of sample), the analytic conditions are mobile phases cosisting of water+2 mM ammonium formate+0.1% formic acid (Phase A) and methanol+2 mM ammonium formate+0.1% formic acid (Phase B). The flow rate was 0.4 mL/min. And the gradient of Mobile phase was in Table 3.
Each animal species was divided into two groups: one was administered intravenously and the other was administered intragastrically. The compounds disclosed herein were administered in form of a solution containing 5% DMSO+5% Kolliphor HS15+90% Saline. For the group of intravenous administration, the administration dose was 1 mg/kg, and vein blood samples (0.3 ml) were collected at the time points of 0.083, 0.25, 0.5, 1.0, 2.0, 4.0, 6.0, 8.0 and 24 h after drug administration, then plasma solutions were collected by centrifuging each blood sample at 3000 rpm or 4000 rpm for 10 minutes and kept at −20° C. or −70° C. For the group of intragastric administration, the administration dose was 5 mg/kg, and vein blood samples (0.3 mL) were collected at the time points of 0.25, 0.5, 1.0, 2.0, 4.0, 6.0, 8.0 and 24 h after drug administration, then plasma solutions were collected by centrifuging each blood sample at 3000 rpm or 4000 rpm for 10 minutes and kept at −20° C. or −70° C.
20 μL of plasma was blended with 120 μl, 50 ng/ml propranolol standard water solution, then the mixture was extracted with 1.0 mL methyl tert-butyl ether (MTBE), 0.7 mL of supernatant was dried by blow with nitrogen and then dissolved again with 220 μL methanol water (methanol/water (v/v)=1/1). LC-MS/MS method was used to detect the concentration of the target compounds, and […] was used to calculate the pharmacokinetic parameters.

[3] abbreviates: SD, rat, plasma, iv, i.v group, 1 mg/kg.
Where [4] appears, read: SD, rat, plasma, po, i.g group, 5 mg/kg.

For the molecule `NC(=O)[C@@H]1C[C@H](F)CN1Cc1ccc(OCc2cccc(F)c2)cc1F` [Example 3, (2S,4S)-4-fluoro-1-(2-fluoro-4-(3-fluorobenzyloxy)benzyl)pyrrolidine-2-formamide], the half-maximal inhibitory concentration (IC50) in data set [1] came to 29 µM. In data set [2] (setting [3]), this molecule registered an AUC(0-inf) of 582 ng·h/mL, an AUC(0-t) of 582 ng·h/mL, a Cmax of 681 ng/mL and an MRT inf of 46.7 min. Besides, in data set [2] (setting [3]), the Tmax stood at 4.98 min, the clearance amounted to 28.7 mL/min/kg and the half-life is 42.7 min. In data set [2] (setting [4]), this molecule returned an area under the curve AUC(0-inf) of 1550 ng·h/mL, an AUC(0-t) of 1520 ng·h/mL, a maximum concentration (Cmax) of 700 ng/mL and an MRT inf of 127 min. For the same molecule, in data set [2] (setting [4]), the time to peak (Tmax) was found to be 37.5 min and the half-life is 73.8 min. In addition, the F in data set [2] (i.g group, 5 mg/kg) is 53.3%.
`NC(=O)[C@@H]1C[C@H](F)CN1Cc1ccc(OCc2cccc(F)c2)cc1` [Example 1, (2S,4S)-4-fluoro-1-(4-(3-fluorobenzyloxy)benzyl)pyrrolidine-2-formamide]: the IC50 in data set [1] turned out to be 46 µM. Besides, in data set [2] (setting [3]), the AUC(0-inf) was found to be 507 ng·h/mL, the Cmax was determined as 690 ng/mL, the MRT inf amounted to 41.6 min and the Tmax stood at 4.98 min. In data set [2] (setting [4]), this molecule gave an AUC(0-inf) of 1400 ng·h/mL, an AUC(0-t) of 1400 ng·h/mL, a Cmax of 1000 ng/mL and a mean residence time MRT inf of 64.8 min. In data set [2] (setting [4]), the Tmax stood at 20 min and the half-life was 33.9 min. This molecule also showed a F in data set [2] (i.g group, 5 mg/kg) of 55.2%. Further, in data set [2] (i.v group, 1 mg/kg), the AUClast came to 505 ng·h/mL, the Cl came to 32.9 mL/min/kg and the T1/2 came to 40.2 min.
